We go through two compounds from patent US8012504B2 (priority 2000, dated 2011).

Each structure is given as a SMILES string. Structures can show the parent of a compound that is named as a salt.

The AUC(0-t) is exposure summed from dosing to a finite time, without extrapolation to infinity. The term AUC(0-inf) denotes the area under the concentration-time curve extrapolated to infinity. As usually defined, the Cmax is the maximum level reached in the sampled fluid or tissue. As usually defined, the half-life is how long it takes for the measured level to halve. What is called Tmax is the time from dosing to the highest level. As a reminder, the clearance is the volume of plasma or blood freed of the substance per unit of time.

The conditions of data set [1]: in vivo; cited from earlier work.
Data set [2] can be described thus: Example 16: interaction potential, Mucinex and Sudafed 12 Hour alone or together, 3-way crossover. The data set is classed as in vivo, human. The text has this: In another study drug interaction potential for combination drugs was examined.
Data set [3] can be described thus: clinical. The conditions noted are these: human, in vivo, 1200 mg.

For the compound `CN[C@@H](C)[C@@H](O)c1ccccc1` [Pseudoephedrine, Pseudoephedrine hydrochloride], the mean elimination half-life in data set [1] was 4 to 6 h. For the same compound, the AUC(0-t) in data set [2] (human, in vivo, po, 120 mg, Pseudoephedrine AUC0-t, mean, Treatment B: 120 mg pseudoephedrine HCl alone (Sudafed 12 Hour), overnight fast) came to 4020 ng·h/mL; in data set [2] (human, in vivo, po, 120 mg, Pseudoephedrine AUC0-t, mean, Treatment C: 120 mg pseudoephedrine HCl along with 1200 mg guaifenesin (Sudafed 12 Hour + Mucinex), overnight fast) it was 3920 ng·h/mL; in data set [2] (human, in vivo, po, 120 mg, Pseudoephedrine AUC0-t, median, Treatment B: 120 mg pseudoephedrine HCl alone (Sudafed 12 Hour), overnight fast) it was 3820 ng·h/mL; in data set [2] (human, in vivo, po, 120 mg, Pseudoephedrine AUC0-t, median, Treatment C: 120 mg pseudoephedrine HCl along with 1200 mg guaifenesin (Sudafed 12 Hour + Mucinex), overnight fast), 3930 ng·h/mL. For the same compound, the AUC(0-inf) in data set [2] (human, in vivo, po, 120 mg, Pseudoephedrine AUCinf, mean, Treatment B: 120 mg pseudoephedrine HCl alone (Sudafed 12 Hour), overnight fast) turned out to be 4500 ng·h/mL; in data set [2] (human, in vivo, po, 120 mg, Pseudoephedrine AUCinf, mean, Treatment C: 120 mg pseudoephedrine HCl along with 1200 mg guaifenesin (Sudafed 12 Hour + Mucinex), overnight fast), 4400 ng·h/mL; in data set [2] (human, in vivo, po, 120 mg, Pseudoephedrine AUCinf, median, Treatment B: 120 mg pseudoephedrine HCl alone (Sudafed 12 Hour), overnight fast), 4430 ng·h/mL; in data set [2] (human, in vivo, po, 120 mg, Pseudoephedrine AUCinf, median, Treatment C: 120 mg pseudoephedrine HCl along with 1200 mg guaifenesin (Sudafed 12 Hour + Mucinex), overnight fast), 4250 ng·h/mL. Also, the Cmax came out at 296 ng/mL in data set [2] (human, in vivo, po, 120 mg, Pseudoephedrine Cmax, mean, Treatment B: 120 mg pseudoephedrine HCl alone (Sudafed 12 Hour), overnight fast); 289 ng/mL in data set [2] (human, in vivo, po, 120 mg, Pseudoephedrine Cmax, mean, Treatment C: 120 mg pseudoephedrine HCl along with 1200 mg guaifenesin (Sudafed 12 Hour + Mucinex), overnight fast); 298 ng/mL in data set [2] (human, in vivo, po, 120 mg, Pseudoephedrine Cmax, median, Treatment B: 120 mg pseudoephedrine HCl alone (Sudafed 12 Hour), overnight fast); 286 ng/mL in data set [2] (human, in vivo, po, 120 mg, Pseudoephedrine Cmax, median, Treatment C: 120 mg pseudoephedrine HCl along with 1200 mg guaifenesin (Sudafed 12 Hour + Mucinex), overnight fast). Besides, the half-life in data set [2] (human, in vivo, po, 120 mg, Pseudoephedrine Half-life, mean, Treatment B: 120 mg pseudoephedrine HCl alone (Sudafed 12 Hour), overnight fast) was 6.05 h; in data set [2] (human, in vivo, po, 120 mg, Pseudoephedrine Half-life, mean, Treatment C: 120 mg pseudoephedrine HCl along with 1200 mg guaifenesin (Sudafed 12 Hour + Mucinex), overnight fast), 6.04 h; in data set [2] (human, in vivo, po, 120 mg, Pseudoephedrine Half-life, median, Treatment B: 120 mg pseudoephedrine HCl alone (Sudafed 12 Hour), overnight fast) it was 5.81 h; in data set [2] (human, in vivo, po, 120 mg, Pseudoephedrine Half-life, median, Treatment C: 120 mg pseudoephedrine HCl along with 1200 mg guaifenesin (Sudafed 12 Hour + Mucinex), overnight fast) it was 5.63 h. Also, the time of peak concentration (Tmax) in data set [2] (human, in vivo, po, 120 mg, Pseudoephedrine Tmax, mean, Treatment B: 120 mg pseudoephedrine HCl alone (Sudafed 12 Hour), overnight fast) was 6.17 h; in data set [2] (human, in vivo, po, 120 mg, Pseudoephedrine Tmax, mean, Treatment C: 120 mg pseudoephedrine HCl along with 1200 mg guaifenesin (Sudafed 12 Hour + Mucinex), overnight fast), 5.75 h; in data set [2] (human, in vivo, po, 120 mg, Pseudoephedrine Tmax, median, Treatment B: 120 mg pseudoephedrine HCl alone (Sudafed 12 Hour), overnight fast), 6 h; in data set [2] (human, in vivo, po, 120 mg, Pseudoephedrine Tmax, median, Treatment C: 120 mg pseudoephedrine HCl along with 1200 mg guaifenesin (Sudafed 12 Hour + Mucinex), overnight fast) it was 6 h. In addition, the “Pseudoephedrine Clearance” value in data set [2] (mean, Treatment B: 120 mg pseudoephedrine HCl alone (Sudafed 12 Hour), overnight fast) worked out at 23.66 L/h; in data set [2] (mean, Treatment C: 120 mg pseudoephedrine HCl along with 1200 mg guaifenesin (Sudafed 12 Hour + Mucinex), overnight fast), 24.30 L/h; in data set [2] (median, Treatment B: 120 mg pseudoephedrine HCl alone (Sudafed 12 Hour), overnight fast), 22.20 L/h; in data set [2] (median, Treatment C: 120 mg pseudoephedrine HCl along with 1200 mg guaifenesin (Sudafed 12 Hour + Mucinex), overnight fast) it was 23.16 L/h.
On to `COc1ccccc1OCC(O)CO` (centres unmarked) [Guaifenesin, 3-(2-methoxyphenoxy)-1,2-propanediol], for which the typical plasma half-life result in data set [1] is given as “approximately one”. The AUC(0-t) in data set [2] (human, in vivo, 1200 mg, Guaifenesin AUC0-t) turned out to be 7060 ng·h/mL; in data set [3] (Guaifenesin AUC0-t), 8350 ng·h/mL. In addition, the AUC(0-inf) was 7280 ng·h/mL in data set [2] (human, in vivo, 1200 mg, Guaifenesin AUCinf) and 8830 ng·h/mL in data set [3] (Guaifenesin AUCinf). Besides, the clearance was 2750 mL/min in data set [2] (human, in vivo, 1200 mg, Guaifenesin Clearance) and 2270 mL/min in data set [3] (Guaifenesin Clearance). The maximum concentration (Cmax) in data set [2] (human, in vivo, 1200 mg, Guaifenesin Cmax) was 1700 ng/mL; in data set [3] (Guaifenesin Cmax), 1920 ng/mL. The half-life in data set [2] (human, in vivo, 1200 mg, Guaifenesin Half-life) was 2.82 h; in data set [3] (Guaifenesin Half life), 3.03 h. For the same compound, the Tmax in data set [2] (human, in vivo, 1200 mg, Guaifenesin Tmax) amounted to 0.75 h; in data set [3] (Guaifenesin Tmax), 0.75 h.
